Reference: patent publication EP1309253B1, “METHODS AND DEVICES FOR REMOVING NU[…] FROM TOBACCO AND TOBACCO SMOKE” (Cerami Consulting Corporation, priority 2000, dated 2002)

Details: 250 mg portions of each compound as filter; smoke from one cigarette drawn through 3 mls of distilled water; read at 405 nm; compared with control cigarette
Protocol: The treated fibers were then dried overnight at 37 C. The smoke from one cigarette was drawn through the filter material and then through 3 mls of distilled water using a water-pipe smoking device which was constructed from a 25 ml glass Erlenmeyer flask attached to a vacuum source with an air flow rate of approximately 35 ml/min. Three 100 microliter aliquots were removed from each flask, placed into ELISA plate wells and read in an ELISA plate reader at 405 nm. The percentage or tar removed is based on a comparison between the cigarette comprising the filter containing the test agent and an appropriate control cigarette.
The treated fibers were dried at 37 C overnight and then made into a tobacco cigarette using a tube cigarette maker. The smoke from 1 of each type of filter cigarette was then drawn through 3 mls of distilled water using a water-pipe smoking device which was constructed from a small (25 ml) glass Erlenmeyer flask attached to a vacuum source with an air flow rate of approximately 35 ml/min. Three 100 microliter aliquots were removed from each flask, placed into ELISA plated wells and read in an ELISA plate reader at 405 nm.

| SMILES | % TAR REMOVAL [%] |
| --- | --- |
| CC1(C)CC(=O)CC(=O)C1 [(5,5-dimethyl-1,3-cyclohexanedione, 5,5-dimethyl-1,3-cyclohexanedione] | 26 |
| O=C1NC(=O)C(=O)C(=O)N1 [Alloxan] | 96.9 |
| CC(C)(C)OC(=O)NCCCCCC(=O)ON1C(=O)CCC1=O [BOC-ε-aminocaproic acid-N-hydroxysuccinimide ester] | 74 |
| CC12CCC(C(=O)C1=O)C2(C)C (stereo not shown) [Camphorquinone] | 53.9 |
| O=C(C=CC=Cc1ccccc1)C=CC=Cc1ccccc1 [Dicinnamalacetone] | 98.1 |
| O=Cc1cccc(OCCOc2cccc(C=O)c2)c1 [Ethylenedioxybis(3-benzaldehyde)] | 19.3 |
| O=C(/C=C/C(=O)c1ccccc1)c1ccccc1 [Fumarophenone] | 87.5 |
| O=C1C=C2CC3(O)COc4c(ccc(O)c4O)C3=C2C=C1O (stereo not shown) [Hematein, 6a,7-dihydro-3,4,6a,10 tetrahydroxyben[b]indeno[1,2-d]pyran-9(6H)-one] | 48.7 |
| O=C1c2ccccc2C(=O)C1(O)C1(O)C(=O)c2ccccc2C1=O [Hydrindantin] | 95 |
| C[C@H](NC(=O)OC(C)(C)C)C(=O)ON1C(=O)CCC1=O [N-α-t-BOC-L-alanine-N-hydroxysuccinimide ester] | 25 |
| O=C1c2ccccc2C(=O)C1(O)O [Ninhydrin] | 83 |
| O=Cc1ccccc1C=O [O-phthaldialdehyde] | 84 |
| O=CC(=O)c1ccccc1 [Phenylglyoxal] | 53 |
